Assay [1] concerns NO synthesis in mouse macrophage cell line RAW 264.7. The experiment in a line: Inhibition of nitric oxide synthesis (Griess reaction). The class given is cell-based. The conditions noted are these: 10 μM. The protocol:
Exposure of various cells (e.g. macrophages and smooth muscle cells) to bacterial LPS and proinflammatory cytokines induces iNOS which generates NO. NO production can be indirectly quantified by measurement of nitrite (NO2—), a stable breakdown product of NO. The mouse macrophage cell line RAW 264.7 was cultured in DMEM supplemented with FCS, 2 mM glutamine and 50 U/ml penicillin/streptomycin. Cells were treated with either test compound at 10 μM (in 0.125% DMSO) or vehicle alone, together with 10 ng/ml LPS. After incubation for 24 hrs, culture media was collected and analysed immediately for NO concentration using the Griess reaction (Eigler et al. 1995).

The subject of assay [2] is AA-induced ear inflammation. Description: Murine ear inflammation induced by arachidonic acid. The class given is in vivo, mice (BALB/c). The conditions noted are these: for Increase in ear thickness (mean ± SD, ×0.01 mm): 25 mg/kg i/p, 1 hr post-AA application. The source says:
Compounds were examined for their ability to inhibit ear swelling in mice induced by the topical application of arachidonic acid (AA). The inflammatory response due AA, the immediate precursor of the eicosanoids, is due to formation of AA metabolites via both the cyclooxygenase (COX) and lipoxygenase (LOX) pathways (Young et al. 1984). AA induces an increase in both PGE2 and LTC4 synthesis which precedes the increase in ear thickness (Opas et al. 1985; Chang et al. 1986).
Female BALB/c mice (ARC, WA, Australia), weighing 15-21 g were injected with Compound 2 delivered in polyethylene glycol (PEG) 400:phosphate buffered saline (PBS) 1:1 intraperitoneally (i/p) at a dose of 25 mg/kg either 30 min prior to or immediately before the application of AA to the ears. Mice were anaesthetized using isoflurane and baseline thickness of both ears was measured using a spring micrometer. Each mouse received a total of 20 μL of AA in ethanol (50 mg/ml) applied to the inner and outer surfaces of each pinna (i.e. 0.5 mg AA per ear). Mice were anaesthetized again to remeasure the ears at 1 hr post-AA application.
The difference in ear swelling pre- and post-application of AA for each ear was calculated, and the average for the two ears of each mouse calculated. The difference in mean swelling of each test group compared to the group given vehicle alone was calculated using a two-tailed unpaired t test (Prism 4, GraphPad Software).

For assay [3], the system named is UV irradiation-induced skin oedema. The experiment in a line: Murine model of UV irradiation-induced skin oedema. The class given is in vivo, mice (Skh:hr-1 albino). As to conditions: for Increase in skin thickness (mean ± SD, ×0.01 mm): topical 0.2 ml of 20 μM at 30 min, 2 h, 4 h; for skin oedema, in words: 48 hrs, topical. The text has this:
Groups of 4-5 female Skh:hr-1 albino mice were irradiated with 1×3 MEdD (minimal edematous dose) of solar simulated UV radiation (SSUV). Solar-simulated ultraviolet radiation (SSUV) was provided by a planar bank of 6 UVA tube (Hitachi 40 W F40 T 10/BL, black light) and one UVB tube (Philips TL 40 W/12 RS) with radiation filtered through a sheet of 0.125 mm cellulose acetate (Eastman Chemical Products, Kingport, Term, USA) to give 2.96×10-4 W/cm2 UVA and 1.59×10-5 W/cm2 UVB. During irradiation, the cages were rotated below the lights to reduce the variation in radiation intensity in different positions.
Either test compound (0.2 ml of a 20 μM solution) or vehicle (propylene glycol/ethanol/water 1:2:1) was applied to the irradiated dorsal skin at 30 min, 2 h and 4 h post-irradiation. Dorsal skin fold measurements were made with a spring micrometer prior to and at 24 hr and 48 h post-UV exposure. The difference in skin thickness pre- and post-exposure to UVR was calculated for each mouse, and the differences examined between test compound and vehicle control were analysed using an unpaired two-tailed t test.

The test system of assay [4] is inflammed rat air pouches (serum-treated zymozan). Description: Rat air pouch assay. The class given is in vivo, rats (Dark Agouti). As to conditions: 0.5 ml of 100 μM into pouch; for Polymorphs in tissue sections (per 100 squares): 4 h; for Leucocytes in lavage fluid (×10^−7): lavage at 4 h. The protocol: An alternative assay used to measure anti-inflammatory efficacy is the air pouch model which involves the repeated subcutaneous injection of air into the dorsum of rats followed 24 h later by the intrapouch injection of an inflammatory stimulus (Gilroy et al. 1998).
Air pouches were raised on the dorsum of female Dark Agouti rats, approximately 7 weeks of age. To promote the formation of a cellular membrane lining the inside of each pouch, the pouches were maintained by re-inflating on days 2 and 5 after the initial injection of air. On re-inflation, the pouch was first deflated to ensure the needle was positioned correctly, before being re-inflated with 2 mL of sterile air. Using this protocol, the pouches remained inflated until use on day 7, when they were injected with 0.5 ml of either test compound at 100 μM or vehicle control. After 15 min, air pouches were injected with serum-treated zymozan (STZ-500 μg). Lavage of the air pouch (4×2 ml lavages) was performed at 4 h and leucocytes counted, after which the rats were killed, the air pouch excised and processed in formalin for histology. The sections were blinded to the person counting. Using a graticule with 100 squares and the 40× objective, the number of polymorphs were counted in the pouch lining at 10 different and non-adjacent sites. Group sizes were 5-6 rats. Data were analysed for statistical significance within each experiment and using an unpaired t test.

In a further assay the test system is DSS-induced colitis. The experiment in a line: Murine model of DSS-induced colitis. The conditions noted are these: for maximum mean weight loss: vehicle 5%; for day at which clinical signs became evident: vehicle day 5; for colitis, in words: Experiment 1, 1 mg/kg throughout until day 17; for mean clinical score compared with vehicle, in words: Experiment 1, day 11; for day of switch from mean body weight loss to mean body weight gain: Experiment 1, vehicle day 15; for inflammation, in words: Experiment 2, 1 mg/kg for 10 days prior to DSS only; for colonic inflammation, in words: series of experiments, 1.0-1.25 mg/kg single oral dose per day. The class given is in vivo, mice (BALB/c). Here is the method: Female BALB/c mice, 6-7 weeks old, were housed for a minimum of one week before any experimental work began. To induce colitis, dextran sulphate sodium (DSS—molecular weight 40 kD, TdB Consultancy AB, Uppsala, Sweden (Dieleman et al. 1994), was administered fresh daily in the drinking water at a concentration of 4.5-5% for 5 days (Okayasu et al. 1990), after which water alone was given. This regime induced mild colitis, evidenced by diarrhea and rectal bleeding, the severity of which was scored, as well as a reduction in the length of the colon. Histologically, colonic inflammation was evidenced by ulceration and an infiltration of neutrophils into the mucosa, which was also scored. The systemic effect of the colitis causes weight loss, which was also monitored.
Either vehicle (PEG 400:PBS1:1) Compounds 1 or 4 were administered at a dose rate of 1 mg/kg throughout the experiment until the mice were killed at day 17.
Either Compounds 1 and 2, at a dose of 1 mg/kg or vehicle were administered for 10 days prior to DSS being added to the drinking water to induce colitis, after which test compound was stopped. DSS was administered for 5 days and the mice killed 8 days later (day 23).
Either the cis or the trans isomers of Compound 3 (Compound 3a and 3b respectively) at 1.25 mg/kg or vehicle were administered throughout the experiment until the mice were killed at day 17.

The results in this text go back to patent US20090131513A1, “ANTI-INFLAMMATORY MODALITIES” (Novogen Research Pty Ltd., priority 2005, published 2009).

Take `O=C1c2ccc(O)c(Br)c2OCC1c1ccc(O)cc1` (stereo not drawn) [Compound 1, 3-(4-hydroxyphenyl)-7-hydroxy-8-bromo-chroman-4-one]: in assay [1], the “NO synthesis, direction of effect in words” value (“NO synthesis, direction” below) is “inhibited NO synthesis”. Further, the “Increase in ear thickness (mean ± SD, ×0.01 mm)” value in assay [2] is 9.5 ± 2.3 ×0.01 mm. In addition, in assay [3] (24 hrs post-irradiation), the “Increase in skin thickness (mean ± SD, ×0.01 mm)” value came to 54 ± 20 ×0.01 mm. The “Increase in skin thickness (mean ± SD, ×0.01 mm)” value in assay [3] (48 hrs post-irradiation) was found to be 91 ± 7.6 ×0.01 mm. Moreover, the “skin oedema, in words” value in assay [3] is “significantly inhibited”. In assay [4], the “Polymorphs in tissue sections (per 100 squares)” value (“Polymorphs … (per 100 squares)” for short) worked out at 31.0 ± 7.25 per 100 squares and the “Leucocytes in lavage fluid (×10^−7)” value is given as 0.89 ± 0.42 ×10^−7. In addition, the “comparative anti-inflammatory activity between test compounds” value in the assay on DSS-induced colitis (Experiment 1, 1 mg/kg) was “better anti-inflammatory activity”. In addition, in the assay on DSS-induced colitis (Experiment 1, 1 mg/kg oral), the “colon length compared with vehicle (trend), in words” value was “longer”; the “mean histology scores, in words” value is listed as “less colitis”; the “ulceration of the colonic epithelium compared with vehicle” value is “statistically significant (p=0.0135) less ulceration”; the “maximum mean weight loss” value is 2%. Further, in the assay with DSS-induced colitis (Experiment 1, 1 mg/kg oral), the “day at which clinical signs became evident” value came out at 6 days. Also, in the assay with DSS-induced colitis, the “colitis, in words” value is “decreased colitis”; the “mean clinical score compared with vehicle, in words” value was “significantly lower”; the “day of switch from mean body weight loss to mean body weight gain” value came out at 10 days; the “inflammation, in words” value is reported as “Inflammation was reduced”. The “colonic inflammation, in words” value with DSS-induced colitis was “reduced colonic inflammation”. In addition, the “colon length versus control group not given DSS” value in the assay with DSS-induced colitis (Experiment 2, pre-dosed 1 mg/kg) is “not statistically different in length from those of the control group”.
Take `Oc1ccc(C2COc3c(ccc(O)c3O)C2O)cc1` (stereo not drawn) [Compound 2]: the “NO synthesis, direction” value in assay [1] was “induced it”. Further, the “Increase in ear thickness (mean ± SD, ×0.01 mm)” value in assay [2] was 6.5 ± 2.9 ×0.01 mm. For the same compound, the “AA-induced ear inflammation / ear thickness compared with vehicle, in words” value in assay [2] (mouse, in vivo) is “significant reduction in ear thickness”. The “Increase in skin thickness (mean ± SD, ×0.01 mm)” value in assay [3] (24 hrs post-irradiation) is 68 ± 24 ×0.01 mm. In assay [3] (48 hrs post-irradiation), the “Increase in skin thickness (mean ± SD, ×0.01 mm)” value turned out to be 105 ± 22 ×0.01 mm. Moreover, the “skin oedema, in words” value in assay [3] is on record as “significantly inhibited”. In assay [4], the “Polymorphs … (per 100 squares)” value came to 14.3 ± 5.7 per 100 squares and the “Leucocytes in lavage fluid (×10^−7)” value is listed as 0.68 ± 0.36 ×10^−7. Further, in the assay with DSS-induced colitis, the “inflammation, in words” value was “Inflammation was reduced” and the “colonic inflammation, in words” value is reported as “reduced colonic inflammation”. The “body weight versus vehicle” value with DSS-induced colitis (Experiment 2, day 22) is “weighed significantly more than those receiving vehicle (p=0.0291)”. The “body weight loss associated with DSS-induced colonic inflammation” value in the assay on DSS-induced colitis (Experiment 2, pre-dosed 1 mg/kg for 10 days) is “reduced the body weight loss”.
As for `O=C1c2cc(Cl)c(O)cc2OCC1c1ccc(O)cc1` (stereo not drawn) [Compound 4], in assay [1], the “NO synthesis, direction” value was “induced it”. Besides, the “Increase in ear thickness (mean ± SD, ×0.01 mm)” value in assay [2] stood at 9.2 ± 3.6 ×0.01 mm. The “Increase in skin thickness (mean ± SD, ×0.01 mm)” value in assay [3] (24 hrs post-irradiation) is given as 63 ± 22 ×0.01 mm. Moreover, the “Increase in skin thickness (mean ± SD, ×0.01 mm)” value in assay [3] (48 hrs post-irradiation) is recorded as 145 ± 11 ×0.01 mm. For the same compound, in assay [4], the “Polymorphs … (per 100 squares)” value is 23.4 ± 8.8 per 100 squares and the “Leucocytes in lavage fluid (×10^−7)” value was 1.00 ± 0.38 ×10^−7. Also, in the assay on DSS-induced colitis (Experiment 1, 1 mg/kg oral), the “colon length compared with vehicle (trend), in words” value is reported as “longer”; the “mean histology scores, in words” value was “less colitis”; the “maximum mean weight loss” value stood at 1%; the “day at which clinical signs became evident” value stood at 6 days. Also, in the assay on DSS-induced colitis, the “colitis, in words” value is listed as “decreased colitis”; the “mean clinical score compared with vehicle, in words” value is “significantly lower”; the “day of switch from mean body weight loss to mean body weight gain” value stood at 12 days; the “colonic inflammation, in words” value is listed as “reduced colonic inflammation”.
